This passage reports IC50 results from patent US11597727B2 (THE REGENTS OF THE UNIVERSITY OF CALIFORNIA, priority 2018, dated 2023).

Structures are written as SMILES.

Chain of integrin α2β1 (P17301 30-1181): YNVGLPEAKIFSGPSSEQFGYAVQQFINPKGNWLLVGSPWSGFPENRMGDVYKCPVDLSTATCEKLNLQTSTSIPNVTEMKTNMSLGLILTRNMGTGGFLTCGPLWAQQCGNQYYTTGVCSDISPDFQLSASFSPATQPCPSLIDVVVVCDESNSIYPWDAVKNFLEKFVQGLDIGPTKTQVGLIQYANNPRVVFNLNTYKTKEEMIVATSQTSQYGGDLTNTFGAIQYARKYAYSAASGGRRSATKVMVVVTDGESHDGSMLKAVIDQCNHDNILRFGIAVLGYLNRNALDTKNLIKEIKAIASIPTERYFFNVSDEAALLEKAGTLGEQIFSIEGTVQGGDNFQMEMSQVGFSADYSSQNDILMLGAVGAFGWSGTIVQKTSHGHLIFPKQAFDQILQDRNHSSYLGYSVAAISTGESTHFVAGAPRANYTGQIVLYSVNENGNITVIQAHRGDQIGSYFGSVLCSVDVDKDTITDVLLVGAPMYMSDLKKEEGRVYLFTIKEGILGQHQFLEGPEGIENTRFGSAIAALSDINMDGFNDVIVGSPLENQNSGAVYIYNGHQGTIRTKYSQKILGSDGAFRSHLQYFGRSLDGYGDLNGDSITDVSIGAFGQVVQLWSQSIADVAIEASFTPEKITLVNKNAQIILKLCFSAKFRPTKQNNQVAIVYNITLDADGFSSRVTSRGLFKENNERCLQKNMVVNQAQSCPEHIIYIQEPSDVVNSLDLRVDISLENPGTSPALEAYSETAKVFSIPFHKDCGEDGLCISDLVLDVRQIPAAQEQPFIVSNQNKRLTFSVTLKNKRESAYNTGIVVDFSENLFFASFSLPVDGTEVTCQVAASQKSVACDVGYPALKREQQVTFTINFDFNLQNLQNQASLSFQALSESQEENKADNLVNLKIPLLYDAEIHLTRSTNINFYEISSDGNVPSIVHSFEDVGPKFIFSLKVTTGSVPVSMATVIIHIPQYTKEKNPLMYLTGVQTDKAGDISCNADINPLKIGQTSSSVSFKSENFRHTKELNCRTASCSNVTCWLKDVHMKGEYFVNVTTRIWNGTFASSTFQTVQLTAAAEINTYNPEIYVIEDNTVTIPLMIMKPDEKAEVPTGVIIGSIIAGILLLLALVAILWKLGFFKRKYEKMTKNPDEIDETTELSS
Chain of integrin α2β1 (P05556 21-798): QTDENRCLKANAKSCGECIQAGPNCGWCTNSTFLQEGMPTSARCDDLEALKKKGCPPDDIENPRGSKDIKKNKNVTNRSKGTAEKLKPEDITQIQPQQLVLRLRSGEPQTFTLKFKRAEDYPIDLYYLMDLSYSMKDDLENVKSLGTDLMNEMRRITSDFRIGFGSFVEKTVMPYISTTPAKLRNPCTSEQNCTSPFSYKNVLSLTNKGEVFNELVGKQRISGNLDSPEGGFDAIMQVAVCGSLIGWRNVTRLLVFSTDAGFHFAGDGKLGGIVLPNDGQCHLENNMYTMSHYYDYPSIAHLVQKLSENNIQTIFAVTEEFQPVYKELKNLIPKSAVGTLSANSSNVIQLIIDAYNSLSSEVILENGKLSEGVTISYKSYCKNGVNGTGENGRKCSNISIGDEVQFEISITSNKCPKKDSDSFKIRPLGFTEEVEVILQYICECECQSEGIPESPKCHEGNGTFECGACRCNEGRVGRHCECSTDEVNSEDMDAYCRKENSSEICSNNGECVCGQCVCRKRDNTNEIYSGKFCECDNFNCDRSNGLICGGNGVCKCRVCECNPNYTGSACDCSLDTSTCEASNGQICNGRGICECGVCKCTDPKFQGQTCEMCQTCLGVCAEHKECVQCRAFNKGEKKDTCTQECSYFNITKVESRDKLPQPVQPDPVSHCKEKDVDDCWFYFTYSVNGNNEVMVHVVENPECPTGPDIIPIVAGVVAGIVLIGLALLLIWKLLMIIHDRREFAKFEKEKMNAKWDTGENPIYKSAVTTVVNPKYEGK

The assay concerns the target integrin α2β1 (Homo sapiens, UniProt P05556+P17301). As to the kind of experiment: HT 1080 cell adhesion assay on rat tail collagen I. The note with it: HT1080 (human fibrosarcoma) cells on rat tail collagen I, absorbance at 595 nm, triplicate; read-out: IC50s from HT 1080 Cell adhesion assay. On the set-up: HT1080 (human fibrosarcoma) cells (or human airway smooth muscle cells) were detached and resuspended in serum-free DMEM; endogenous in cells; host or cells: HT1080 human fibrosarcoma cells. It is filed as cell-based. On the procedure: Cell adhesion Assay: Ninety-six-well flat-bottomed tissue culture plates were coated with rat tail collagen I for 1 hour at 37° C. After incubation, wells were blocked with 1% BSA at 37° C. for 1 hour. Control wells were filled with 1% BSA. HT1080 (human fibrosarcoma) cells (or human airway smooth muscle cells) were detached and resuspended in serum-free DMEM. Cells were incubated with anti-integrin alpha2 antibody control or 10-fold dilutions of each compound with a starting concentration of 10 uM for 15 minutes at 4° C. before plating. The plates were centrifuged at 10 g for 5 minutes before incubation for 1 hour at 37° C. in humidified 5% CO2. Nonadherent cells were removed by centrifugation (top side down) at 10 g for 5 minutes. Attached cells were stained with 0.5% crystal violet, and the wells were washed with PBS. The relative number of cells in each well was evaluated after solubilization in 40 μl of 2% Triton X-100 by measuring absorbance at 595 nm in a microplate reader. All determinations were carried out in triplicate.
On to `COc1cc(C)c(C(=O)N[C@@H](CNC(=O)NCc2ccccc2)C(=O)O)c(C)c1` [A2-60, (S)-3-(3-benzylureido)-2-(4-methoxy-2,6-dimethylbenzamido)propanoic acid], for which the IC50 is 10 to 100 µM.

Take `O=C(NC[C@H](NC(=O)c1c(Cl)cccc1Cl)C(=O)O)N[C@@H]1CCCc2ccccc21` [A2-124, (2S)-2-(2,6-dichlorobenzamido)-3-(3-(1,2,3,4-tetrahydronaphthalen-1-yl)ureido)propanoic acid]: the IC50 is below 10 µM.

Consider `O=C(NCCc1ccccc1)NC[C@H](NC(=O)c1c(Cl)cccc1Cl)C(=O)O` [KZ-1-11, (S)-2-(2,6-dichlorobenzamido)-3-(3-phenethylureido)propanoic acid], for which the IC50 is above 100 µM.

Regarding `O=C(NC[C@H](NC(=O)c1c(Cl)cccc1Cl)C(=O)O)NCC12CC3CC(CC(Cl)(C3)C1)C2` [A2-156, (S)-3-(3-((3-chloroadamantan-1-yl)methyl)ureido)-2-(2,6-dichlorobenzamido)propanoic acid], the IC50 was in the range of 10 to 100 µM.

With `CC12CC3CC(C1)CC(NC(=O)NC[C@H](NC(=O)c1c(Cl)cccc1Cl)C(=O)O)(C3)C2` [A2-157, (S)-2-(2,6-dichlorobenzamido)-3-(3-(3-methyladamantan-1-yl)ureido)propanoic acid], the IC50 was in the range of 10 to 100 µM.

Take `O=C(NCc1ccccc1Cl)NC[C@H](NC(=O)c1c(Cl)cccc1Cl)C(=O)O` [KZ-1-18, (S)-3-(3-(2-chlorobenzyl)ureido)-2-(2,6-dichlorobenzamido)propanoic acid]: the IC50 lay within 10 to 100 µM.

As to `O=C(NC[C@H](NC(=O)c1c(Cl)cccc1Cl)C(=O)O)N[C@@H]1CCc2ccccc21` [A2-85, (S)-2-(2,6-dichlorobenzamido)-3-(3-((R)-2,3-dihydro-1H-inden-1-yl)ureido)propanoic acid], the IC50 was below 10 µM.

`O=C(NCc1cc(F)cc(F)c1)NC[C@H](NC(=O)c1c(Cl)cccc1Cl)C(=O)O` [KZ-1-32, (S)-2-(2,6-dichlorobenzamido)-3-(3-(3,5-difluorobenzyl)ureido)propanoic acid]: the IC50 is above 100 µM.

With `O=C(NCc1ccc(C(F)(F)F)cc1)NC[C@H](NC(=O)c1c(Cl)cccc1Cl)C(=O)O` [KZ-1-30, (S)-2-(2,6-dichlorobenzamido)-3-(3-(4-(trifluoromethyl)benzyl)ureido)propanoic acid], the IC50 was above 100 µM.

Turning to `CC1(C)C2CCC1(C)C(NC(=O)NC[C@H](NC(=O)c1c(Cl)cccc1Cl)C(=O)O)C2` (stereo partly drawn) [A2-171, (2S)-2-(2,6-dichlorobenzamido)-3-(3-(1,7,7-trimethylbicyclo[2.2.1]heptan-2-yl)ureido)propanoic acid], the IC50 is below 10 µM.

Consider `O=C(NCc1ccc(Br)cc1)NC[C@H](NC(=O)c1c(Cl)cccc1Cl)C(=O)O` [KZ-1-23, (S)-3-(3-(4-bromobenzyl)ureido)-2-(2,6-dichlorobenzamido)propanoic acid], for which the IC50 lay within 10 to 100 µM.

For `O=C(NC[C@H](NC(=O)c1c(Cl)cccc1Cl)C(=O)O)NCC12CC3CC(CC(C3)C1)C2` [A2-83], the IC50 lay in the range of 10 to 100 µM.

With `CC(C)(C)CNC(=O)NC[C@H](NC(=O)c1c(Cl)cccc1Cl)C(=O)O` [KZ-1-40, (S)-2-(2,6-dichlorobenzamido)-3-(3-neopentylureido)propanoic acid], the IC50 was above 100 µM.

For `CC(CC12CC3CC(CC(C3)C1)C2)NC(=O)NC[C@H](NC(=O)c1c(Cl)cccc1Cl)C(=O)O` (stereo partly drawn) [A2-155, (2S)-3-(3-(1-(adamantan-1-yl)propan-2-yl)ureido)-2-(2,6-dichlorobenzamido)propanoic acid], the IC50 was 10 to 100 µM.

Regarding `O=C(NCC1CCc2ccccc21)NC[C@H](NC(=O)c1c(Cl)cccc1Cl)C(=O)O` (stereo partly shown) [A2-123], the IC50 was below 10 µM.

Take `O=C(NC[C@H](NC(=O)c1c(Cl)cccc1Cl)C(=O)O)NC1CC2CCC1C2` (stereo partly drawn) [A2-172, (2S)-3-(3-(bicyclo[2.2.1]heptan-2-yl)ureido)-2-(2,6-dichlorobenzamido)propanoic acid]: the IC50 is below 10 µM.

With `O=C(N[C@@H](CNC(=S)NCc1ccccc1)C(=O)O)c1c(Cl)cccc1Cl` [KZ-1-21, (S)-3-(3-benzylthioureido)-2-(2,6-dichlorobenzamido)propanoic acid], the IC50 was 10 to 100 µM.

For `O=C(NC[C@H](NC(=O)c1c(Cl)cccc1Cl)C(=O)O)N[C@H]1CCc2ccccc21` [A2-86, (S)-2-(2,6-dichlorobenzamido)-3-(3-((S)-2,3-dihydro-1H-inden-1-yl)ureido)propanoic acid], the IC50 is 10 to 100 µM.

Take `CCC12CC3CC(C1)CC(NC(=O)NC[C@H](NC(=O)c1c(Cl)cccc1Cl)C(=O)O)(C3)C2` [A2-129, (S)-2-(2,6-dichlorobenzamido)-3-(3-(3-ethyladamantan-1-yl)ureido)propanoic acid]: the IC50 is 10 to 100 µM.

On to `O=C(NC[C@H](NC(=O)c1c(Cl)cccc1Cl)C(=O)O)NC1CCc2ccccc2C1` (stereo partly drawn) [A2-126, (2S)-2-(2,6-dichlorobenzamido)-3-(3-(1,2,3,4-tetrahydronaphthalen-2-yl)ureido)propanoic acid], for which the IC50 is below 10 µM.

As to `O=C(NC[C@H](NC(=O)c1c(Cl)cccc1Cl)C(=O)O)NC1Cc2ccccc2C1` [A2-84, (S)-2-(2,6-dichlorobenzamido)-3-(3-(2,3-dihydro-1H-inden-2-yl)ureido)propanoic acid], the IC50 fell in the range of 10 to 100 µM.

Regarding `O=C(N[C@@H](CNc1nccc(-c2ccccc2)n1)C(=O)O)c1c(Cl)cccc1Cl` [A2-73, (S)-2-(2,6-dichlorobenzamido)-3-((4-phenylpyrimidin-2-yl)amino)propanoic acid], the IC50 is above 100 µM.

As for `O=C(NC[C@H](NC(=O)c1c(Cl)cccc1Cl)C(=O)O)NC12CC3CC(C1)CC(C(=O)O)(C3)C2` [A2-143, 3-(3-((S)-2-carboxy-2-(2,6-dichlorobenzamido)ethyl)ureido)adamantane-1-carboxylic acid], the IC50 lay within 10 to 100 µM.

Turning to `O=C(NC[C@H](NC(=O)c1c(Cl)cccc1Cl)C(=O)O)NC1CCC2(CC1)C1CC3CC(C1)CC2C3` (stereo partly drawn) [A2-180, (S)-2-(2,6-dichlorobenzamido)-3-(3-(spiro[adamantane-2,1′-cyclohexan]-4′-yl)ureido)propanoic acid], the IC50 is 10 to 100 µM.

On to `C[C@@H](NC(=O)NC[C@H](NC(=O)c1c(Cl)cccc1Cl)C(=O)O)c1ccccc1` [KZ-1-12, (S)-2-(2,6-dichlorobenzamido)-3-(3-((R)-1-phenylethyl)ureido)propanoic acid], for which the IC50 lay within 10 to 100 µM.

In the case of `O=C(NC[C@H](NC(=O)c1c(Cl)cccc1Cl)C(=O)O)NC1C2CC3CC(C2)CC1C3` (stereo partly drawn) [A2-130, (S)-3-(3-(adamantan-2-yl)ureido)-2-(2,6-dichlorobenzamido)propanoic acid], the IC50 was below 10 µM.

Take `O=C(NCc1c(F)cccc1F)NC[C@H](NC(=O)c1c(Cl)cccc1Cl)C(=O)O` [KZ-1-33, (S)-2-(2,6-dichlorobenzamido)-3-(3-(2,6-difluorobenzyl)ureido)propanoic acid]: the IC50 is above 100 µM.

For the compound `O=C(NC[C@H](NC(=O)c1c(Cl)cccc1Cl)C(=O)O)NC1CCC2(CCCCC2)CC1` [A2-179, (S)-2-(2,6-dichlorobenzamido)-3-(3-(spiro[5.5]undecan-3-yl)ureido)propanoic acid], the IC50 was 10 to 100 µM.

For the compound `COc1cccc(OC)c1C(=O)N[C@@H](CNC(=O)NCc1ccccc1)C(=O)O` [A2-28, (S)-3-(3-benzylureido)-2-(2,6-dimethoxybenzamido)propanoic acid], the IC50 was above 100 µM.

Take `O=C(NC[C@H](NC(=O)c1c(Cl)cccc1Cl)C(=O)O)NC12CC3CC(CC(O)(C3)C1)C2` [A2-144, (S)-2-(2,6-dichlorobenzamido)-3-(3-(3-hydroxyadamantan-1-yl)ureido)propanoic acid]: the IC50 is 10 to 100 µM.

As to `O=C(NCc1ccccc1)NC[C@H](NC(=O)c1c(F)cccc1Br)C(=O)O` [A2-36, (S)-3-(3-benzylureido)-2-(2-bromo-6-fluorobenzamido)propanoic acid], the IC50 lay within 10 to 100 µM.

For the compound `Cc1cc(C)c(C(=O)N[C@@H](CNC(=O)NCc2ccccc2)C(=O)O)c(C)c1` [A2-26, (S)-3-(3-benzylureido)-2-(2,4,6-trimethylbenzamido)propanoic acid], the IC50 is 10 to 100 µM.

For the compound `O=C(NC[C@H](NC(=O)c1c(Cl)cccc1Cl)C(=O)O)N[C@H]1CCCc2ccccc21` [A2-125, (S)-2-(2,6-dichlorobenzamido)-3-(3-((S)-1,2,3,4-tetrahydronaphthalen-1-yl)ureido)propanoic acid], the IC50 was below 10 µM.

With `CC(C)CC(=O)N[C@@H](CNC(=O)NCc1ccccc1)C(=O)O` [A2-37, (S)-3-(3-benzylureido)-2-(3-methylbutanamido)propanoic acid], the IC50 is above 100 µM.

Regarding `O=C(NCCC1C2CC3CC(C2)CC1C3)NC[C@H](NC(=O)c1c(Cl)cccc1Cl)C(=O)O` (stereo partly shown) [A2-134], the IC50 is 10 to 100 µM.

As for `O=C(NCC1CC2(CCC2)C1)NC[C@H](NC(=O)c1c(Cl)cccc1Cl)C(=O)O` [A2-178, (S)-2-(2,6-dichlorobenzamido)-3-(3-(spiro[3.3]heptan-2-ylmethyl)ureido)propanoic acid], the IC50 was in the range of 10 to 100 µM.

As to `CCCNC(=O)NC[C@H](NC(=O)c1c(Cl)cccc1Cl)C(=O)O` [KZ-1-27, (S)-2-(2,6-dichlorobenzamido)-3-(3-propylureido)propanoic acid], the IC50 was above 100 µM.
